The subject of series [1] is HUVEC. Nature of the series: HUVEC Cytodex 3D bead sprouting assay. Type of series: cell-based, human. The conditions noted are these: HUVEC Cytodex beads in collagen gel; VGB3 0, 0.015, 0.03, 0.061 μM; VEGF (0.75 pM; method: 0.03 μg/ml VEGF-A); 24 h. The method, then:
The fibrin or collagen sprouting angiogenesis assay was performed as previously described. Type I collagen was obtained as previously reported. HUVECs were allowed to attach to Cytodex microcarrier beads (Amersham Pharmacia Biotech, Sweden) by incubation in DMEM medium with 10% FBS for 4 h at 37 °C in 5% CO2 (60 μL of […] Cytodex beads were coated with 400 μl of HUVECs). EC-covered beads were embedded into the collagen gel under sodium bicarbonate conditions (Sigma, St. Louis, Missouri, USA), distributed in 96-well plates (100 μl/well), and placed in a 37 °C, 5% CO2 incubator for 30 min. Then DMEM supplemented with 2% FBS with a range of concentrations (0, 0.015, 0.03, 0.061 μM) of VGB3 in the presence of (0.03 μg.ml^-1) VEGF-A were added on top of the collagen gel. After 24 h, angiogenesis was monitored microscopically. All the capillary-like structures were photographed using an inverted microscope (Olympus BX-51, Japan) with a scale bar of 20 μm, and the number of sprouts grown on beads was quantified by ImageJ software. The assays were performed in triplicate.

In series [2] the test system is 4T1 mammary carcinoma cells. Type of series: cell-based, murine. The method, then: 2× 10^3 HUVEC and 4T1 cell-line were cultured in DMEM medium supplemented with 10% FBS at 37 °C with 5% CO2 in 96-well plate. After 24 h, The cells were incubated in the media supplemented with 2% FBS, different concentrations (0, 0.015, 0.03, 0.061 μM) of VGB3 in the presence of (0.03 μg.ml^-1) VEGF-A (Sigma, St. Louis, MO) for 24 and 48 respectively. Then, cell proliferation was quantified by 3-(4,5–dimethylthiazol-2-yl)-2 ,5-diphenyl tetrazolium bromide (MTT) (Sigma, St. Louis, MO) solution (5 mg/mL) in PBS (pH 7.4) was added to each well and the plates were incubated in the dark at 37 °C for 4 h. Then the insoluble purple formazan product was dissolved by dimethyl sulfoxide (DMSO). Absorbance was measured at 570 nm using an ELISA plate reader. The assay was performed in triplicate.

A short description of series [3]: Body weight of tumor-bearing mice. Type of series: in vivo, Female BALB/c mice. The conditions noted are these: VGB3 0.02-0.5 mg/kg i.v., day 13 till 31; two-way ANOVA. The method, then:
(§1) Female BALB/c mice (5–7 weeks) were purchased from the Laboratory Animal Center of the Iran Pasteur Institute and maintained under standardized environmental conditions: 12 h light-dark phases, with free access to food and water. For treatment with VGB3, Tumor cells (4T1; 1×10^6 cells/500 μl or 1×10^5 cells/50 μl) were injected subcutaneously into the right flanks of mice (n=3–5). To generate the metastatic model, 4T1 tumor models were sterilized, excised from the breast cancer-bearing BALB/c mice, cut into pieces of <0.3 cm3, and subcutaneously implanted into the animals' right flanks under ketamine (100 mg/kg, i.p.) and xylazine (10 mg/kg, i.p.) anesthesia. Animals carrying tumors of size ~100mm3 were randomized to 6 mice/group (n=6). The treatment groups received 0.02, 0.1, 0.2 or 0.5 mg/kg of VGB3 on alternate days and the control group received PBS i.v. into the mice for 19 days from day 13. The tumor volume was measured every 5 days by a digital Vernier caliper (Mitutoyo, Japan), using the following formula: v=a^2×b×0.52 (where a is the shortest and b is the longest diameter). All studies were performed under the guidelines and with the approval of the Institutional Animal Care and Use Committee (IACUC) of Tehran University of Medical Sciences.

Series [4] concerns 4T1 tumor tissues. The series is described as follows: Immunohistochemistry / TUNEL of excised 4T1 tumors. The conditions noted are these: VGB3 0.2 mg/kg vs PBS, n = 6. Type of series: in vivo, Female BALB/c mice. The procedure:
as §1
Excised tumor tissues for immunohistochemical (IHC) analysis were fixed in formalin (4%), embedded in paraffin, sectioned, and stained with hematoxylin-eosin (H&E). IHC was followed by heat-induced epitope retrieval in a buffer at pH 9.0. IHC staining for CD31 and CD34 (to assign MVD), Ki67 (to determine the percentage of Ki67-positive cells), and P53 and Bcl-2 (to determine the fraction of apoptotic cells relative to total cells) was performed on formalin-fixed paraffin-embedded sections. Staining for cell death with TUNEL (terminal deoxynucleotidyl transferase nick-end labeling)) was performed, followed by enzymatic development in diaminobenzidine (DAB) (Invitrogen, Carlsbad, California, USA) detection and counter-staining in hematoxylin. Images were acquired by microscopy (Olympus BX-51, Japan). Numbers of positive cells were determined by analyzing five random tissue samples under scale bars 100 and 20 μm, with quantification using ImageJ.

Molecules are shown by their SMILES. Where a SMILES comes first, the peptide text is derived from it.

As usually defined, the IC50 is the point on the concentration scale where inhibition reaches its midpoint. A low value points to inhibition by little substance.

As to `CC(C)C[C@@H]1NC(=O)CNC(=O)[C@H](CC(=O)O)NC(=O)[C@H](CC(=O)O)NC(=O)[C@@H]2CCCN2C(=O)[C@@H]2CCCN2C(=O)[C@H](CCCNC(=N)N)NC(=O)[C@@H](NC(=O)[C@@H](N)CCC(=O)O)CSSC[C@@H](C(=O)O)NC1=O` [VGB3] (HELM PEPTIDE1{E.C.R.P.P.D.D.G.L.C}$PEPTIDE1,PEPTIDE1,2:R3-10:R3$$$V2.0), the “angiogenesis in vitro (sprouting)” value in series [1] was “inhibits angiogenesis in vitro”. This compound displayed an IC50 in series [2] (48 h) of 30 nM. Besides, in series [2] (VGB3 IC50 30 nM in 4T1 vs ~180 nM for VEGFR1D2 fragments in HUVEC (ref 3)), the “IC50 fold lower than that of VEGFR1D2 fragments” value is 6 fold. In addition, in series [3], the “body weight differences vs PBS control” value is “no significant (NS) differences”. Also, in series [4] (IHC), the Bcl-2 expression entry is recorded as “decreased”, the CD31 expression entry is listed as “decreased”, the CD34 expression entry is listed as “decreased” and the Ki67 expression entry is listed as “decreased”. Further, in series [4] (IHC), the p53 expression result is on record as “increased”. Also, in series [4], the TUNEL staining entry is reported as “increased”.

(Values after PMC7272640, “Molecular docking, synthesis and biological evaluation of Vascular Endothelial Growth Factor (VEGF) B based peptide as antiangiogenic agent targeting the second domain of the Vascular Endothelial Growth Factor Receptor 1 (VEGFR1D2) for anticancer application” (Signal Transduction and Targeted Therapy, 2020).)
